# Laboratory results reported in the NIST ThermoML archive (doi:10.1016/j.jct.2006.10.016).
# Where “and” joins values, the source holds several entries; their conditions need not be identical. Identical values can stand only once. Numbers after ± are expanded uncertainties.
# Conditions: 101 kPa, Liquid
mass density (303.15 K) [kg/m3],viscosity (303.15 K) [mPa·s],mass density (308.15 K) [kg/m3],viscosity (308.15 K) [mPa·s],mass density (313.15 K) [kg/m3],viscosity (313.15 K) [mPa·s],mass density (318.15 K) [kg/m3],viscosity (318.15 K) [mPa·s],mass density (323.15 K),viscosity (323.15 K) [mPa·s],Compound
795.5 ± 2,1.733 ± 0.078,791.1 ± 2.1,1.534 ± 0.07,787 ± 2.2,1.367 ± 0.063,783.3 ± 2.3,1.234 ± 0.058,779.5 ± 2.4 kg/m3,1.1 ± 0.052,CCCO [propan-1-ol]
783.4 ± 2,1.086 ± 0.051,779 ± 2.1,0.9732 ± 0.047,774.6 ± 2.2,0.8596 ± 0.042,769.8 ± 2.3,0.8284 ± 0.041,766.1 ± 2.4 kg/m3,0.7493 ± 0.037,CCO [ethanol]
1090.7 ± 2.9,1.832 ± 0.082,1084.7 ± 3,1.67 ± 0.076,1082.3 ± 3.2,1.537 ± 0.07,1075.1 ± 3.2,1.408 ± 0.065,1070.1 ± 3.4 kg/m3 and 1070 ± 3.4 kg/m3,1.289 ± 0.06,C[S+](C)[O-] [dimethyl sulfoxide]
776.4 ± 1.9,1.792 ± 0.081,772.6 ± 2,1.553 ± 0.071,768.6 ± 2.1,1.355 ± 0.062,763.9 ± 2.3,1.182 ± 0.055,758.8 ± 2.4 kg/m3,1.041 ± 0.049,CC(C)O [propan-2-ol]
